We go through one compound from patent US20010025105A1, “Certain substituted 1-aryl-3-piperazine-1'-yl propanones” (Molecular Geriatarics Corporation, priority 1997, published 2001).

This assay relates to microtubule cytoskeleton of human CG neuroblastoma cells. As to the kind of experiment: Antimicrotubule activity, tubulin immunofluorescence microscopy. It counts as cell-based. As to conditions: 2 hr at 37° C., read-out: Concentration where microtubule destabilization occurs.

Consider `Cl.Cl.O=C(CCN1CCN(Cc2ccccc2)CC1)c1ccc(F)c2ccccc12` [Example 21, 1-(4″-Fluoronaphth-1″-yl)-3-(4′-benzyl-1′-piperazinyl)-1-propanone dihydrochloride], for which the minimal effective concentration stood at 20 µM.
